# From patent US9555022B2, “Substituted triazolopyridines” (Bayer Intellectual Property GmbH, priority 2010, dated 2017)
# Target: human full length recombinant Mps-1 kinase (Homo sapiens (Human), UniProt P33981)
# Test: Mps-1 Kinase Assay (TR-FRET)
# Assay type: biochemical
# Conditions: 10 μM ATP, 1 μM biotinylated peptide substrate, 60 min at 22° C., read-out: Mps-1 Inhibition, IC50 in M
# Method: The human kinase Mps-1 phosphorylates a biotinylated substrate peptide. Detection of the phosphorylated product is achieved by time-resolved fluorescence resonance energy transfer (TR-FRET) from Europium-labelled anti-phospho-Serine/Threonine antibody as donor to streptavidin labelled with cross-linked allophycocyanin (SA-XLent) as acceptor. Compounds are tested for their inhibition of the kinase activity.
# N-terminally GST-tagged human full length recombinant Mps-1 kinase (purchased from Invitrogen, Karslruhe, Germany, cat. no PV4071) was used. As substrate for the kinase reaction a biotinylated peptide of the amino-acid sequence […] (C-terminus in amide form, purchased from Biosynthan GmbH, Berlin) was used.
# The concentration of Mps-1 in the assay was adjusted to the activity of the enzyme lot and was chosen appropriate to have the assay in the linear range, typical enzyme concentrations were in the range of about 1 nM (final conc. in the 5 μl assay volume).
# The resulting mixture was incubated 1 h at 22° C. to allow the binding of the phosphorylated peptide to the anti-phospho(Ser/Thr)-Europium-antibody. Subsequently the amount of phosphorylated substrate was evaluated by measurement of the resonance energy transfer from the Europium-labelled anti-phospho(Ser/Thr) antibody to the Streptavidin-XLent.
# human full length recombinant Mps-1 kinase, sequence (P33981 whole entry): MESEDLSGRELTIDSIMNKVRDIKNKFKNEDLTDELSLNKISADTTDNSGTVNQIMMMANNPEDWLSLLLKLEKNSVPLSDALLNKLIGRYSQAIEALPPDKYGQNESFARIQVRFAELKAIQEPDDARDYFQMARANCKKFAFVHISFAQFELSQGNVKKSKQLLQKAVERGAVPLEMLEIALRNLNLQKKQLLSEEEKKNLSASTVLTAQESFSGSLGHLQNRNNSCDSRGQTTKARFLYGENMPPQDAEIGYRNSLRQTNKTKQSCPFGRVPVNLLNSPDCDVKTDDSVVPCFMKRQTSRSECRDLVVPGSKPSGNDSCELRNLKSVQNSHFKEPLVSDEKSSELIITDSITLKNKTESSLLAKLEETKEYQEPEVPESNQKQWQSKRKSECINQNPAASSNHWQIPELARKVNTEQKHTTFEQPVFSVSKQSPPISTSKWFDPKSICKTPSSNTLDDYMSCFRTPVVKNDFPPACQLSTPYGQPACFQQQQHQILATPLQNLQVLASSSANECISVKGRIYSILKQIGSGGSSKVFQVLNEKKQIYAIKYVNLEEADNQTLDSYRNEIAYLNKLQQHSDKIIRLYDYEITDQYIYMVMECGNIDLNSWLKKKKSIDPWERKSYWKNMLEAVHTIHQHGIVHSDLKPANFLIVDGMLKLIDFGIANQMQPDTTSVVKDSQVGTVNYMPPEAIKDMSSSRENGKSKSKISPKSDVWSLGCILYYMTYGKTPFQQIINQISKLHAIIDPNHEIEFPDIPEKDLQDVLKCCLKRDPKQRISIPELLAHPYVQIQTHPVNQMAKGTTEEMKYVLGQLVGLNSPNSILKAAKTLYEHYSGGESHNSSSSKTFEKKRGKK
row,Compound,IC50 [nM]
1,"COc1cc(C(=O)N2CC3(COC3)C2)ccc1Nc1nc2ccc(-c3ccc(C(=O)NCC4CC4)cc3)cn2n1 [Example 03.07, N-(cyclopropylmethyl)-4-(2-{[2-methoxy-4-(2-oxa-6-azaspiro[3.3]hept-6-ylcarbonyl)phenyl]amino}[,2]triazolo[1,5-a]pyridin-6-yl)benzamide]",≤ 1
2,"COc1cc(C(=O)N2CCOCC2)ccc1Nc1nc2ccc(-c3ccc(C(=O)NCc4ccc(F)cc4)cc3)cn2n1 [Example 04.01, N-(4-Fluorbenzyl)-4-(2-{[2-methoxy-4-(morpholin-4-ylcarbonyl)phenyl]amino}[,2]-triazolo[1,5-a]pyridin-6-yl)benzamid]",≤ 1
3,"CCOc1cc(C(=O)N2CCOCC2)ccc1Nc1nc2ccc(-c3ccc(C(=O)NCc4ccc(F)cc4)cc3)cn2n1 [Example 04.02, 4-(2-{[2-Ethoxy-4-(morpholin-4-ylcarbonyl)phenyl]amino}[,2]-triazolo[1,5-a]pyridin-6-yl)-N-(4-fluorbenzyl)benzamid]",≤ 1
4,"COc1cc(N2CCOC2=O)ccc1Nc1nc2ccc(-c3ccc(C(=O)NCc4ccc(F)cc4)cc3)cn2n1 [Example 04.03, N-(4-fluorobenzyl)-4-(2-{[2-methoxy-4-(2-oxo-1,3-oxazolidin-3-yl)phenyl]amino}[,2]-triazolo[1,5-a]pyridin-6-yl)benzamide]",≤ 1
5,"CCOc1cc(N2CCOC2=O)ccc1Nc1nc2ccc(-c3ccc(C(=O)NCc4ccc(F)cc4)cc3)cn2n1 [Example 04.04, 4-(2-{[2-ethoxy-4-(2-oxo-1,3-oxazolidin-3-yl)phenyl]amino}[,2]triazolo[1,5-a]pyridin-6-yl)-N-(4-fluorobenzyl)benzamide]",≤ 1
6,"COc1cc(C2=NCCO2)ccc1Nc1nc2ccc(-c3ccc(C(=O)NCc4ccc(F)cc4)cc3)cn2n1 [Example 04.05, 4-(2-{[4-(4,5-dihydro-1,3-oxazol-2-yl)-2-methoxyphenyl]amino}[,2]-triazolo[1,5-a]pyridin-6-yl)-N-(4-fluorobenzyl)benzamide]",≤ 1
7,"COc1cc(C(=O)N2C[C@@H]3C[C@H]2CO3)ccc1Nc1nc2ccc(-c3ccc(C(=O)NCc4ccc(F)cc4)cc3)cn2n1 [Example 04.06, N-(4-fluorobenzyl)-4-[2-({2-methoxy-4-[(1S,4S)-2-oxa-5-azabicyclo[2.2.1]hept-5-ylcarbonyl]phenyl}amino)[,2]triazolo[1,5-a]pyridin-6-yl]benzamide]",≤ 1
8,"COc1cc(C(=O)N2CC3(COC3)C2)ccc1Nc1nc2ccc(-c3ccc(C(=O)NCc4ccc(F)cc4)cc3)cn2n1 [Example 04.07, N-(4-fluorobenzyl)-4-(2-{[2-methoxy-4-(2-oxa-6-azaspiro[3.3]hept-6-ylcarbonyl)phenyl]amino}[,2]triazolo[1,5-a]pyridin-6-yl)benzamide]",≤ 1
9,"COc1cc(C(=O)N2CC(O)C2)ccc1Nc1nc2ccc(-c3ccc(C(=O)NCc4ccc(F)cc4)cc3)cn2n1 [Example 04.08, N-(4-fluorobenzyl)-4-[2-({4-[(3-hydroxyazetidin-1-yl)carbonyl]-2-methoxyphenyl}amino)[,2]-triazolo[1,5-a]pyridin-6-yl]benzamide]",≤ 1
10,"COc1cc(C(=O)N2CCS(=O)(=O)CC2)ccc1Nc1nc2ccc(-c3ccc(C(=O)NCc4ccc(F)cc4)cc3)cn2n1 [Example 04.09, 4-[2-({4-[(1,1-dioxidothiomorpholin-4-yl)carbonyl]-2-methoxyphenyl}amino)[,2]triazolo[1,5-a]pyridin-6-yl]-N-(4-fluorobenzyl)benzamide]",≤ 1
11,"COc1cc(C(=O)N2CCC(O)CC2)ccc1Nc1nc2ccc(-c3ccc(C(=O)NCc4ccc(F)cc4)cc3)cn2n1 [Example 04.10, N-(4-fluorobenzyl)-4-[2-({4-[(4-hydroxypiperidin-1-yl)carbonyl]-2-methoxyphenyl}amino)[,2]triazolo[1,5-a]pyridin-6-yl]benzamide]",≤ 1
12,"COc1cc(C(=O)NC2COC2)ccc1Nc1nc2ccc(-c3ccc(C(=O)NCc4ccc(F)cc4)cc3)cn2n1 [Example 04.11, 4-[(6-{4-[(4-fluorobenzyl)carbamoyl]phenyl}[,2]triazolo[1,5-a]pyridin-2-yl)amino]-3-methoxy-N-(oxetan-3-yl)benzamide]",≤ 1
13,"CCOc1cc(C(=O)N2CC3(COC3)C2)ccc1Nc1nc2ccc(-c3ccc(C(=O)NCc4ccc(F)cc4)cc3)cn2n1 [Example 04.12, 4-(2-{[2-ethoxy-4-(2-oxa-6-azaspiro[3.3]hept-6-ylcarbonyl)phenyl]amino}[,2]-triazolo[1,5-a]pyridin-6-yl)-N-(4-fluorobenzyl)benzamide]",≤ 1
14,"CCOc1cc(C(=O)N2CCN(C(C)=O)CC2)ccc1Nc1nc2ccc(-c3ccc(C(=O)NCc4ccc(F)cc4)cc3)cn2n1 [Example 04.13, 4-[2-({4-[(4-acetylpiperazin-1-yl)carbonyl]-2-ethoxyphenyl}amino)[,2]triazolo[1,5-a]pyridin-6-yl]-N-(4-fluorobenzyl)benzamide]",≤ 1
15,"CCOc1cc(C(=O)N2CC(O)C2)ccc1Nc1nc2ccc(-c3ccc(C(=O)NCc4ccc(F)cc4)cc3)cn2n1 [Example 04.14, 4-[2-({2-ethoxy-4-[(3-hydroxyazetidin-1-yl)carbonyl]phenyl}amino)[,2]triazolo[1,5-a]pyridin-6-yl]-N-(4-fluorobenzyl)benzamide]",≤ 1
16,"O=C(NCc1ccc(F)cc1)c1ccc(-c2ccc3nc(Nc4ccc(C(=O)N5CC6(COC6)C5)cc4OCC(F)(F)F)nn3c2)cc1 [Example 04.15, N-(4-fluorobenzyl)-4-(2-{[4-(2-oxa-6-azaspiro[3.3]hept-6-ylcarbonyl)-2-(2,2,2-trifluoroethoxy)phenyl]amino}[,2]-triazolo[1,5-a]pyridin-6-yl)benzamide]",≤ 1
17,"O=C(NCc1ccc(F)cc1)c1ccc(-c2ccc3nc(Nc4ccc(C(=O)N5CC(O)C5)cc4OCC(F)(F)F)nn3c2)cc1 [Example 04.16, N-(4-fluorobenzyl)-4-[2-({4-[(3-hydroxyazetidin-1-yl)carbonyl]-2-(2,2,2-trifluoroethoxy)phenyl}amino)[,2]triazolo[1,5-a]pyridin-6-yl]benzamide]",≤ 1
18,"O=C(NCc1ccc(F)cc1)c1ccc(-c2ccc3nc(Nc4ccc(C(=O)N5CCOCC5)cc4OCC(F)(F)F)nn3c2)cc1 [Example 04.17, N-(4-fluorobenzyl)-4-(2-{[4-(morpholin-4-ylcarbonyl)-2-(2,2,2-trifluoroethoxy)phenyl]amino}[,2]-triazolo[1,5-a]pyridin-6-yl)benzamide]",≤ 1
19,"COc1cc(N2CCN(C)CC2)ccc1Nc1nc2ccc(-c3ccc(C(=O)NCc4ccc(F)cc4)cc3)cn2n1 [Example 04.18, N-(4-fluorobenzyl)-4-(2-{[2-methoxy-4-(4-methylpiperazin-1-yl)phenyl]amino}[,2]triazolo[1,5-a]pyridin-6-yl)benzamide]",≤ 1
20,"COc1cc(N2CCN(C(C)(C)C)CC2)ccc1Nc1nc2ccc(-c3ccc(C(=O)NCc4ccc(F)cc4)cc3)cn2n1 [Example 04.19, 4-(2-{[4-(4-tert-butylpiperazin-1-yl)-2-methoxyphenyl]amino}[,2]triazolo[1,5-a]pyridin-6-yl)-N-(4-fluorobenzyl)benzamide]",≤ 1
21,"O=C(NCc1ccc(F)cc1)c1ccc(-c2ccc3nc(Nc4ccc(C(=O)N5CC6(COC6)C5)cc4F)nn3c2)cc1 [Example 04.20, N-(4-fluorobenzyl)-4-(2-{[2-fluoro-4-(2-oxa-6-azaspiro[3.3]hept-6-ylcarbonyl)phenyl]amino}[,2]triazolo[1,5-a]pyridin-6-yl)benzamide]",≤ 1
22,"O=C(NCc1ccc(F)cc1)c1ccc(-c2ccc3nc(Nc4ccc(C(=O)N5CCOCC5)cc4F)nn3c2)cc1 [Example 04.21, N-(4-fluorobenzyl)-4-(2-{[2-fluoro-4-(morpholin-4-ylcarbonyl)phenyl]amino}[,2]-triazolo[1,5-a]pyridin-6-yl)benzamide]",≤ 1
23,"O=C(NCc1ccc(F)cc1)c1ccc(-c2ccc3nc(Nc4ccc(C(=O)N5CCOCC5)cc4OCC(F)F)nn3c2)cc1 [Example 04.22, 4-(2-{[2-(2,2-difluoroethoxy)-4-(morpholin-4-ylcarbonyl)phenyl]amino}[,2]-triazolo[1,5-a]pyridin-6-yl)-N-(4-fluorobenzyl)benzamide]",≤ 1
24,"O=C(NCc1ccc(F)cc1)c1ccc(-c2ccc3nc(Nc4ccc(C(=O)N5CCOCC5)cc4C(F)(F)F)nn3c2)cc1 [Example 04.23, N-(4-fluorobenzyl)-4-(2-{[4-(morpholin-4-ylcarbonyl)-2-(trifluoromethyl)phenyl]amino}[,2]triazolo[1,5-a]pyridin-6-yl)benzamide]",≤ 1
25,"COc1cc(CN2CCN(C)CC2)ccc1Nc1nc2ccc(-c3ccc(C(=O)NCc4ccc(F)cc4)cc3)cn2n1 [Example 04.24, N-(4-fluorobenzyl)-4-[2-({2-methoxy-4-[(4-methylpiperazin-1-yl)methyl]phenyl}amino)[,2]triazolo[1,5-a]pyridin-6-yl]benzamide]",≤ 1
26,"COc1cc(CN2CCOCC2)ccc1Nc1nc2ccc(-c3ccc(C(=O)NCc4ccc(F)cc4)cc3)cn2n1 [Example 04.25, N-(4-fluorobenzyl)-4-(2-{[2-methoxy-4-(morpholin-4-ylmethyl)phenyl]amino}[,2]-triazolo[1,5-a]pyridin-6-yl)benzamide]",≤ 1
